The values below come from US7018987B1 (priority 1998, dated 2006).

Molecules are shown by their SMILES.

Experiment [1] deals with DU-145. In kind it is cell-based, Human. To be noted: DU-145, 48 hours.
The subject of experiment [2] is FADU. In kind it is cell-based, Human. To be noted: FADU, 48 hours.
Experiment [3] has as its system NCI-H460. In kind it is cell-based, Human. The note with it: NCI-H460, 48 hours.
Experiment [4] has as its system SW1736. In kind it is cell-based, Human. The note with it: SW1736, 48 hours.
In experiment [5] the test system is SK-N-SH. In kind it is cell-based, Human. To be noted: SK-N-SH, 48 hours.
The test system of experiment [6] is BXPC-3. In kind it is cell-based, Human. To be noted: BXPC-3, 48 hours.
In experiment [7] the test system is P388 lymphocytic leukemia. In kind it is cell-based, Murine. To be noted: murine P-388 leukemia, 48 hours.
In experiment [8] the test system is Neisseria gonorrhoeae. In kind it is cell-based. To be noted: Neisseria gonorrhoeae, disk susceptibility.
For experiment [9], the system named is Micrococcus luteus. The experiment is described as follows: Disk susceptibility testing, Micrococcus luteus. In kind it is cell-based.
The subject of experiment [10] is eight bacteria and two fungi tested. The experiment in a line: Disk susceptibility testing, whole microbe panel. In kind it is cell-based. The note with it: disk susceptibility, bacteria and fungi tested.
In experiment [11] the test system is Escherichia coli. To be noted: disk susceptibility.
The test system of experiment [12] is Stenotrophomonas maltophilia. The note with it: disk susceptibility.
Experiment [13] relates to Enterobacter cloacae. The note with it: disk susceptibility.
Experiment [14] deals with Streptococcus pneumoniae. The note with it: disk susceptibility.
In experiment [15] the test system is Staphylococcus aureus. To be noted: disk susceptibility.
The subject of experiment [16] is Enterococcus faecalis. To be noted: disk susceptibility.

For `CN(C)C1C(=O)C(C(N)=O)=C(O)C2(O)C(=O)C3=C(O)c4c(O)cccc4C(C)(O)C3CC12.COc1ccc(C=Cc2cc(OC)c(OC)c(OC)c2)cc1OP(=O)(O)O` (stereo not shown) [Compound 5r, Tetracycline combretastatin A-4 3-O-phosphate], the “GI50 Prostate DU-145” value in experiment [1] was determined as 0.058 µg/mL. Moreover, the “GI50 Pharynx FADU” value in experiment [2] was found to be 0.0055 µg/mL. In addition, the “GI50 Lung-NSC NCI-H460” value in experiment [3] was 0.0046 µg/mL. For the same compound, the “GI50 Thyroid SW1736” value in [4] came to 0.012 µg/mL. Also, the “GI50 Neuroblast SK-N-SH” value in experiment [5] was 0.0032 µg/mL. Further, the “GI50 Pancreas BXPC-3” value in experiment [6] was 0.57 µg/mL. Besides, in experiment [7], the “ED50 P-388” value was determined as 0.037 µg/mL. The “Minimum inhibitory amount per disk” value in experiment [8] was 3.12–6.25 μg/disk; in [9], 0.78–1.56 μg/disk. In [10], the “antimicrobial growth inhibition (in words)” value is “inhibited the growth of all Gram-negative and Gram-positive bacteria tested”. Also, the Minimum inhibitory concentration is 3.12–6.25 μg/disk in [11]; 6.25–12.5 μg/disk in experiment [12]; 3.12–6.25 μg/disk in [13]; 0.195–0.39 μg/disk in [14]; 0.195–0.39 μg/disk in experiment [15]; 25–50 μg/disk in experiment [16].
